According to ChEMBL document CHEMBL3217486, “Novel indolizine compounds as potent inhibitors of phosphodiesterase IV (PDE4): structureactivity relationship” (Medchemcomm, 2011):

target: Phosphodiesterase 4 (Homo sapiens, UniProt P27815+Q08499+Q07343+Q08493); experiment: Inhibition of PDE4 isolated from human U937 cells using [3H]-cAMP as substrate after 30 mins by liquid scintillation counting analysis; type: cell-free; conditions: u-937

Row | IC50 [nM] | Compound
1 | 348 | O=C(Nc1cccnc1)C(=O)c1cc(Cc2ccccc2)n2ccccc12
2 | 341 | O=C(Nc1cccnc1)C(=O)c1cc(Cc2ccc(F)cc2)n2ccccc12
3 | 165 | O=C(Nc1cccnc1)C(=O)c1cc(Cc2ccc(Cl)cc2)n2ccccc12
4 | 447 | COc1ccc(Cc2cc(C(=O)C(=O)Nc3cccnc3)c3ccccn23)cc1
5 | 327 | O=C(Nc1cccnc1)C(=O)c1cc(Cc2ccc(O)cc2)n2ccccc12
6 | 569 | O=C(Nc1cccnc1)C(=O)c1cc(Cc2ccc([N+](=O)[O-])cc2)n2ccccc12
7 | 824 | Nc1ccc(Cc2cc(C(=O)C(=O)Nc3cccnc3)c3ccccn23)cc1
8 | 719 | N#Cc1ccc(Cc2cc(C(=O)C(=O)Nc3cccnc3)c3ccccn23)cc1
9 | 372 | O=C(Nc1cccnc1)C(=O)c1cc(Cc2ccc(C(F)(F)F)cc2)n2ccccc12
10 | 362 | CC(C)c1ccc(Cc2cc(C(=O)C(=O)Nc3cccnc3)c3ccccn23)cc1
11 | 414 | O=C(Nc1cccnc1)C(=O)c1cc(Cc2ccc(F)cc2)n2ccc(O)cc12
12 | 239 | O=C(Nc1cccnc1)C(=O)c1cc(Cc2ccc(F)cc2)n2ccc(Cl)cc12
13 | 1000 | COc1ccn2c(Cc3ccc(Cl)cc3)cc(C(=O)C(=O)Nc3cccnc3)c2c1
14 | 4700 | N#Cc1ccc(Cc2cc(C(=O)C(=O)Nc3cccnc3Cl)c3ccccn23)cc1
15 | 84 | O=C(Nc1c(Cl)ccnc1Cl)C(=O)c1cc(Cc2ccc(Cl)cc2)n2ccccc12
16 | 250 | N#Cc1ccc(Cc2cc(C(=O)C(=O)Nc3c(Cl)ccnc3Cl)c3ccccn23)cc1
17 | 10000 | O=C(Nc1c(Br)ccnc1Br)C(=O)c1cc(Cc2ccc(F)cc2)n2ccccc12
18 | 10000 | COc1ccnc(OC)c1NC(=O)C(=O)c1cc(Cc2ccc(C#N)cc2)n2ccccc12
19 | 1500 | COc1ccc(NC(=O)C(=O)c2cc(Cc3ccc(C#N)cc3)n3ccccc23)cn1

Row | IC50 [nM] | Compound
20 | 116 | N#Cc1ccc(Cc2cc(C(=O)C(=O)Nc3c(Cl)cncc3Cl)c3ccccn23)cc1
21 | 16 | O=C(Nc1c(Cl)cncc1Cl)C(=O)c1cc(Cc2ccc(Cl)cc2)n2ccccc12
22 | 40 | COc1ccc(Cc2cc(C(=O)C(=O)Nc3c(Cl)cncc3Cl)c3ccccn23)cc1
23 | 15 | O=C(Nc1c(Cl)cncc1Cl)C(=O)c1cc(Cc2ccc(O)cc2)n2ccccc12
24 | 26 | O=C(Nc1c(Cl)cncc1Cl)C(=O)c1cc(Cc2ccc(Cl)cc2)n2ccc(Cl)cc12
25 | 28 | O=C(Nc1c(Cl)cncc1Cl)C(=O)c1cc(Cc2ccc(F)cc2)n2ccc(Cl)cc12
26 | 13 | O=C(Nc1c(Cl)cncc1Cl)C(=O)c1cc(Cc2ccc(F)cc2)n2ccc(F)cc12
27 | 2 | O=C(Nc1c(Cl)cncc1Cl)C(=O)c1cc(Cc2ccc(O)cc2)n2ccc(Cl)cc12
28 | 12 | COc1ccc(Cc2cc(C(=O)C(=O)Nc3c(Cl)cncc3Cl)c3cc(Cl)ccn23)cc1
29 | 82 | N#Cc1ccc(Cc2cc(C(=O)C(=O)Nc3c(Cl)cncc3Cl)c3cc(Cl)ccn23)cc1
30 | 54 | O=C(Nc1c(Cl)c[n+]([O-])cc1Cl)C(=O)c1cc(Cc2ccc(F)cc2)n2ccc(Cl)cc12
31 | 18 | O=C(Nc1c(Cl)c[n+]([O-])cc1Cl)C(=O)c1cc(Cc2ccc(F)cc2)n2ccc(F)cc12
32 | 19 | O=C(Nc1c(Cl)c[n+]([O-])cc1Cl)C(=O)c1cc(Cc2ccc(Cl)cc2)n2ccccc12
33 | 80 | COc1ccc(Cc2cc(C(=O)C(=O)Nc3c(Cl)c[n+]([O-])cc3Cl)c3ccccn23)cc1
34 | 29 | O=C(Nc1c(Cl)c[n+]([O-])cc1Cl)C(=O)c1cc(Cc2ccc(O)cc2)n2ccccc12
35 | 10000 | O=C(Nc1c(Cl)cccc1Cl)C(=O)c1cc(Cc2ccc(F)cc2)n2ccccc12
36 | 10000 | O=C(Nc1c(Cl)cc(C(F)(F)F)cc1Cl)C(=O)c1cc(Cc2ccc(F)cc2)n2ccccc12
37 | 6 | O=C(Nc1c(Cl)cncc1Cl)C(=O)c1cc(Cc2ccc(F)cc2)c2ccccn12
38 | 29 | O=C(Nc1c(Cl)c[n+]([O-])cc1Cl)C(=O)c1cc(Cc2ccc(F)cc2)c2ccccn12

Row | Compound | IC50 [nM]
39 | O=C(Nc1c(Cl)cncc1Cl)C(=O)c1cn(Cc2ccc(F)cc2)c2ccc(O)cc12 [AWD-12-281] | 14
